Test results taken from paper PMC4992173, “Divergent synthesis and identification of the cellular targets of deoxyelephantopins” (Nature Communications, 2016).

What follows are compounds tested against T1, PPARγ (Homo sapiens, UniProt P37231) (assay: IAA-competitive labelling of cysteines on PPARγ (LC-MS/MS)). Conditions: 100 µM, 1 h.
T1 sequence (P37231 1-505): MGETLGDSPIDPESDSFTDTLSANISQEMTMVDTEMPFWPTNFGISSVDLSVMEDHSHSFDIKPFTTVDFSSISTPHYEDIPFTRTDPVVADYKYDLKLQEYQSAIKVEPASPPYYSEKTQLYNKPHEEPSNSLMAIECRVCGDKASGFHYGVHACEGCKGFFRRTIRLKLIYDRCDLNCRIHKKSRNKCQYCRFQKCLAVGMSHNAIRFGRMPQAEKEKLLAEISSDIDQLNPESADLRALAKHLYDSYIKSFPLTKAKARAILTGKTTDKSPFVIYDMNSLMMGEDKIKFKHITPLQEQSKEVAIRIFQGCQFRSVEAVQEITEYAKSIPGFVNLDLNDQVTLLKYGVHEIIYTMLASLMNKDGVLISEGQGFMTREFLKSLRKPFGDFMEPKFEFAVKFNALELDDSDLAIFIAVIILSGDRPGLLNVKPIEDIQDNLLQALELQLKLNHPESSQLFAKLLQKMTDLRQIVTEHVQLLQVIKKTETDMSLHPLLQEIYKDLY
Assay type: binding
Description: Finally, we sought to understand the molecular basis for PPARγ binding by the synthetic analogues of deoxyelephantopin through identification of the precise covalently modified amino acid site. There is literature precedent for oxidized fatty acids containing an α,β-unsaturated ketone to form a covalent bond with a cysteine in the ligand-binding site of PPARγ[53]. More recently, synthetic ligands binding reversibly to a distinct site were identified. […] Bearing in mind that the structurally simplified, and thus less prone to MS/MS fragmentation, probe 23c binds PPARγ as efficiently as 24c (Supplementary Fig. 13), we treated the recombinant nuclear receptor with the former compound, digested the protein and analysed the resulting peptides by LC–MS/MS. […] While zinc fingers respond to oxidative stress through reaction at cysteines[55][56] and have been targeted by small molecules forming disulfide bridges, to the best of our knowledge, deoxyelephantopin is the first example of a small molecule that engages a zinc finger through a Michael addition. The success of Michael acceptors as a cysteine trap in current clinical development of covalent inhibitors points to the privileged reactivity profile of this moiety. Having identified the exact binding site, we then performed covalent docking of 19a using the protein–ligand docking program GOLD. […] Following the docking result, we mutated these two residues, transiently expressed the wild-type and the two PPARγ mutant forms in 293T cells and performed gel-based competitive experiments to determine relative binding affinities for 19a. […] Finally, it is interesting to note that SILAC experiment led to the identification of ZNF346, another zinc finger motif-containing protein. […]
H2O (Buffer A) and 0.1% FA in MeCN (Buffer B). Peptides were eluted into the mass spectrometer at a flow rate of 300 nL/min. over a 240 min. linear gradient (3-35% Buffer B) at 50 °C. Data was acquired in data-dependent mode (top- N = ’ […]
and isotope exclusion was enabled.
MaxQuant analysis. The MS data was analyzed with MaxQuant (V1.5.2.8) and searched against the human proteome (Uniprot, 89,649 entries) and a common list of contaminants (included in MaxQuant). The first peptide search tolerance was set to 20 ppm, 10 ppm was used for the main peptide search and fragment mass tolerance was set to 0.02 Da. The false discovery rate for peptides, proteins and sites identification was set to 1%. The minimum peptide length was set to 6 amino acids and peptide re-quantification, label-free quantification (MaxLFQ) and “ ” were enabled. The minimal number of peptides per protein was set to two. Oxidized methionines and N-terminal acetylation were searched as variable modifications and carbamidomethylation of cysteines was searched as a fixed modification. For SILAC experiments 13C6 L-lysine and 13C6 15N4 L-arginine were set as heavy isotope labels and 12C6 L-lysine and 12C6 14N4 L-arginine as light isotope labels. […]
IAA competition of 23c, 24c and DEP h ARγ. γ
(500 ng in 9 µL PBS) was treated with either 100 µM DEP, 23c, 24c or DMSO (1 µL of 10x stock in DMSO) for one hour. Samples were denatured with 6 M urea in 50 mM NH4HCO3, […]
in the dark. Samples were diluted to 2 M urea with 50 mM NH4HCO3, and digested with trypsin . μ . μ μ 2 for 12 hours at 37 °C. Samples were acidified to a final concentration of 5% acetic acid, desalted over a self-packed C18 spin column and dried. Samples were resuspended in 0.1% FA in water and analyzed by LC-MS/MS (see above). MS data was analyzed in MaxQuant (see above). […]

Structure (SMILES) | competition of iodoacetamide labelling of the Cys190-containing tryptic peptide [%]
C#CCC[C@H](O)[C@H]1C(=C)C(=O)O[C@@H]1c1ccccc1 [23c] | > 75
C#CCC[C@H](OC(=O)C(=C)C)[C@H]1C(=C)C(=O)O[C@@H]1c1ccccc1 [24c] | > 75
C=C(C)C(=O)O[C@H]1CC2=C[C@@H](C/C(C)=C/[C@H]3OC(=O)C(=C)[C@H]13)OC2=O [deoxyelephantopin] | > 75

Same assay, conditions: peptide ASGFHYGVHACEGCK; 100 µM, 1 h

Structure (SMILES) | Ratio compound/DMSO (IAA-labelled peptide)
C#CCC[C@H](O)[C@H]1C(=C)C(=O)O[C@@H]1c1ccccc1 [23c] | 0.79
C#CCC[C@H](OC(=O)C(=C)C)[C@H]1C(=C)C(=O)O[C@@H]1c1ccccc1 [24c] | 0.72
C=C(C)C(=O)O[C@H]1CC2=C[C@@H](C/C(C)=C/[C@H]3OC(=O)C(=C)[C@H]13)OC2=O [deoxyelephantopin] | 1.05

Same assay, conditions: peptide CLAVGMSHNAIR; 100 µM, 1 h

Structure (SMILES) | Ratio compound/DMSO (IAA-labelled peptide)
C#CCC[C@H](O)[C@H]1C(=C)C(=O)O[C@@H]1c1ccccc1 [23c] | 1.14
C#CCC[C@H](OC(=O)C(=C)C)[C@H]1C(=C)C(=O)O[C@@H]1c1ccccc1 [24c] | 1.40
C=C(C)C(=O)O[C@H]1CC2=C[C@@H](C/C(C)=C/[C@H]3OC(=O)C(=C)[C@H]13)OC2=O [deoxyelephantopin] | 0.94

Same assay, conditions: peptide IFQGCQFR; 100 µM, 1 h

Structure (SMILES) | Ratio compound/DMSO (IAA-labelled peptide)
C#CCC[C@H](O)[C@H]1C(=C)C(=O)O[C@@H]1c1ccccc1 [23c] | 0.63
C#CCC[C@H](OC(=O)C(=C)C)[C@H]1C(=C)C(=O)O[C@@H]1c1ccccc1 [24c] | 0.60
C=C(C)C(=O)O[C@H]1CC2=C[C@@H](C/C(C)=C/[C@H]3OC(=O)C(=C)[C@H]13)OC2=O [deoxyelephantopin] | 0.73

Same assay, conditions: peptide LKLIYDRCDLNCR; 100 µM, 1 h

Structure (SMILES) | Ratio compound/DMSO (IAA-labelled peptide)
C#CCC[C@H](O)[C@H]1C(=C)C(=O)O[C@@H]1c1ccccc1 [23c] | 0.83
C#CCC[C@H](OC(=O)C(=C)C)[C@H]1C(=C)C(=O)O[C@@H]1c1ccccc1 [24c] | 0.87
C=C(C)C(=O)O[C@H]1CC2=C[C@@H](C/C(C)=C/[C@H]3OC(=O)C(=C)[C@H]13)OC2=O [deoxyelephantopin] | 0.96

Same assay, conditions: peptide NKCQYCR (contains Cys190); 100 µM, 1 h

Structure (SMILES) | Ratio compound/DMSO (IAA-labelled peptide)
C#CCC[C@H](O)[C@H]1C(=C)C(=O)O[C@@H]1c1ccccc1 [23c] | 0.25
C#CCC[C@H](OC(=O)C(=C)C)[C@H]1C(=C)C(=O)O[C@@H]1c1ccccc1 [24c] | 0.08
C=C(C)C(=O)O[C@H]1CC2=C[C@@H](C/C(C)=C/[C@H]3OC(=O)C(=C)[C@H]13)OC2=O [deoxyelephantopin] | 0.00

Same assay, conditions: peptide TQLYNKPHEEPSNSLMAIECR; 100 µM, 1 h

Structure (SMILES) | Ratio compound/DMSO (IAA-labelled peptide)
C#CCC[C@H](O)[C@H]1C(=C)C(=O)O[C@@H]1c1ccccc1 [23c] | 1.52
C#CCC[C@H](OC(=O)C(=C)C)[C@H]1C(=C)C(=O)O[C@@H]1c1ccccc1 [24c] | 1.72
C=C(C)C(=O)O[C@H]1CC2=C[C@@H](C/C(C)=C/[C@H]3OC(=O)C(=C)[C@H]13)OC2=O [deoxyelephantopin] | 0.94

Same assay, conditions: peptide VCGDKASGFHYGVHACEGCK; 100 µM, 1 h

Structure (SMILES) | Ratio compound/DMSO (IAA-labelled peptide)
C#CCC[C@H](O)[C@H]1C(=C)C(=O)O[C@@H]1c1ccccc1 [23c] | 0.68
C#CCC[C@H](OC(=O)C(=C)C)[C@H]1C(=C)C(=O)O[C@@H]1c1ccccc1 [24c] | 0.65
C=C(C)C(=O)O[C@H]1CC2=C[C@@H](C/C(C)=C/[C@H]3OC(=O)C(=C)[C@H]13)OC2=O [deoxyelephantopin] | 0.81
